Results reported in patent publication US7745402B2, “Method of treating pancreatitis” (Lundbeck Inc., priority 2005, dated 2010).

Columns and labels:
RANTES = test: Real-time RT-PCR of pancreatic chemokine mRNA after hemin; type: in vivo, mice; settings: pancreas 24 h after one intraperitoneal injection
Experimental: FIG. 3: Hemin increases HO-1^+ pancreatic macrophages in association with MCP-1 and MIP-1α induction. (A) Pancreas from CDD-fed mice was triple-stained using antibodies to HO-1 (a), the macrophage marker F4/80 (b), and the granulocyte marker Gr-1 (c). Scale bar in panel d=[…]. (B) Mice were treated intraperitoneally with hemin (H) or vehicle (V) once (H×1) or 3×(H×3, V×3) during a one week period, followed by feeding with CDD or regular chow for 3 d. Pancreata were collected followed by staining and counting F4/80^+ macrophages in 10 randomly selected high power fields (HPF). The mean±SD (3 mice/group) and p-value for the indicated comparisons are shown. (C) Hemin (H) or vehicle (V) were injected intraperitoneally once followed by harvesting of pancreata after 24 h. A non-injected control “C” group was also included. mRNA levels were then estimated from pancreata of 3 mice/group as a ratio of the indicated chemokine to β-actin (mean±SD).
Real-time reverse transcription (RT)-PCR. Total RNA was isolated from pancreatic tissue using a commercial kit (TEL-TEST; Friendswood, Tex.). First strand cDNA was synthesized using oligo-dT primers and SuperScript II reverse transcriptase (Invitrogen; Carlsbad, Calif.). Real-time quantitative PCR was performed with an ABI Prism 7900 Sequence Detection System (PE Biosystems; Foster City, Calif.) and established primers for MCP-1, MIP-1α, MIP-2, RANTES, and β-actin. Zhong, B., et al., J. Cell Sci. 117:1709-1719; Zhang, Y., McCormick, L. L., Desai, S. R., Wu, C., and Gilliam, A. C. 2002. Murine sclerodermatous graft-versus-host disease, a model for human scleroderma: cutaneous cytokines, chemokines, and immune cell activation. J. Immunol. 168:3088-3098; Walzog, B., Weinmann, P., Jeblonski, F., Scharffetter-Kochanek, K., Bommert, K., and Gaehtgens, P. 1999. A role for beta(2) integrins (CD11/CD18) in the regulation of cytokine20 gene expression of polymorphonuclear neutrophils during the inflammatory response. FASEB J. 13:1855-1865. Primers to β-actin were used as an internal control reference, and the amount of specific cytokine relative to actin transcript was determined and reported as mean±SD.

HO-1 = HO-1 immunoblot of mouse tissue/cell homogenates after hemin; type: in vivo, mice; settings: for HO-1 induction: hemin 3× during 7 d
Experimental: (A, B) Total tissue homogenates were obtained from pancreata of caerulein-injected or choline deficient diet (CDD)-fed mice. Two age and sex-matched mice were used for each time point. Homogenates were tested by blotting using antibodies to HO-1 or HO-2. (C) Mice (3 mice/condition) were given hemin by intraperitoneal injection (4× during one week, or 8× during two weeks). Two “control” mice were injected with vehicle alone. Pancreatic homogenates were then obtained and blotted with anti-HO-1/2. (D-F) Mice were injected with saline, hemin, or vehicle (8 mice/group)3×(arrows) followed by feeding with CDD for 3 d then harvesting of the pancreata. HO-1 and HO-2 were analyzed by blotting of pancreatic homogenates (3 mice/group). […] A representative hematoxylin and eosin staining of pancreata from mice that survived CDD feeding is shown (scale bar=50 μM).
FIG. 8: HO-1 expression and hemin-mediated induction in mouse tissues and cells. Mice were injected 3× during 7d with vehicle or hemin (2 mice/group) followed by harvesting of the indicated organs and cells then preparation of total tissue/cell homogenates. Protein concentrations of the homogenates were measured followed by SDS-PAGE separation (40 μg of protein/lane) then blotting using anti-HO-1 antibodies.
Hemin, vehicle and antibodies. […]
Animal procedures. […] Immunofluorescence staining was performed as described (29) and images were analyzed using confocal microscopy. Total tissue lysates were prepared by homogenization in Laemmli sample buffer and analyzed by SDS-PAGE followed by transfer to membranes for blotting and protein visualization by enhanced chemiluminescence. Trypsin activity was determined using a fluorimetric assay and the substrate Boc-Gln-Ala-Arg-MCA (Peptides International Inc.; Louisville, Ky.), and comparison to a standard curve generated with purified trypsin as described. […] Lung injury after caerulein administration was assessed as previously described, based on neutrophilic infiltration, pulmonary edema, alveolar distension and collapse. […]

What does the source list for Hemin?
change in RANTES mRNA level (RANTES): not significant; HO-1 induction (HO-1; bone marrow, spleen, brain): not in bone marrow, spleen or brain; level of HO-1 induction on excessive dosing (HO-1; pancreas, 8× during two weeks vs 4× during one week (FIG. 1C)): excessive dosing decreases the level of HO-1 induction; HO-1 induction (HO-1; peritoneal cells, liver, pancreas and colon): induction of HO-1 in peritoneal cells, liver, pancreas and colon (most prominent change being in pancreas)
